In one experiment the test system is panel of 100 kinases. Put plainly: Selectivity against a panel of 100 kinases (Upstate/Millipore), expressed as Gini coefficient. The format is biochemical. Conditions: calculated from remaining activity at 1 micromolar compound, 10 micromolar ATP, 0 = non-selective, 1 = perfect selectivity. As for the experimental part: Inhibitory potency of compounds (I) at a concentration of 1 micromolar and with ATP concentration of 10 micromolar was determined at Upstate/Millipore against a panel of 100 kinases representing all major families within the kinome. The results are presented in Table 3 and are expressed as percentage of remaining activity.
For comparison purposes Table 4 contains the relevant inhibitory data for reference compounds A-K containing a (hetero)aromatic ring at C(5) of the 7-azaindole system.
Selectivity of compounds according to the present invention and reference compounds expressed as Gini coefficient (J. Med. Chem. 2007, 50, 5773-5779) is shown in Table 5. The individual Gini coefficients have been calculated using the data in Tables 3 and 4. Value Gini=0 corresponds to a totally non-selective compound; value Gini=1 reflects perfect selectivity (inhibition of a single target only)

The next experiment addresses JNK3 (Homo sapiens, UniProt P53779). Put plainly: JNK3 SPA assay. The format is biochemical. Conditions: 3.33 μM ATP, GST-c-Jun substrate; read-out: IC50 against JNK3. The method in brief:
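Radiometric SPA using GST-c-Jun with [γ-33P]ATP in 25 mM HEPES pH 7.5 and 10 mM Mg acetate; the substrate solution held 3.33 µM ATP (JNK2/3) or 2 µM ATP (JNK1). Reactions ran 30 min at room temperature and were stopped with glutathione SPA beads plus 40 mM ATP. IC50 is the concentration halving c-Jun phosphorylation versus control.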

The next experiment deals with TNFα. Put plainly: LPS-induced TNFα suppression in mice (plasma TNFα, ELISA). The format is in vivo, male C57/B16 mice. Particulars: Mus musculus, po; 20 mg/kg p.o. 30 min before LPS 10 mg/kg i.p.; 1 hour after LPS; versus vehicle-treated animals; read-out: Percentage reduction in the level of TNFα in plasma. The procedure:
(§1) The studies were carried out in male C57/B16 mice. Compounds (20 mg/kg; p.o.) were administered 30 minutes before injection of lipopolysaccharide (LPS). LPS was administered intraperitoneally at a dose of 10 mg/kg. Animals were sacrificed 1 hour following LPS injection. Blood was collected into heparinized tubes for measurement of plasma TNFα levels and spleens were collected for the measurement of c-Jun phosphorylation. Plasma TNFα was measured using an ELISA kit purchased from R&D systems. Spleens were homogenised, extracted in high salt (250 mM NaCl) lysis buffer with phosphatase inhibitors and c-Jun phosphorylation was measured using HTRF. The suppressive effect of compounds was calculated as the percentage reduction of the TNFα level in plasma and P-c-Jun level in spleen as compared with the vehicle-treated animals.

In a further experiment the test system is c-Jun phosphorylation. Put plainly: LPS-induced c-Jun phosphorylation in spleen of mice (HTRF). The format is in vivo, male C57/B16 mice. Particulars: Mus musculus, po; 20 mg/kg p.o. 30 min before LPS 10 mg/kg i.p.; 1 hour after LPS; versus vehicle-treated animals; read-out: Percentage reduction in the level of P-c-Jun in spleen. As for the experimental part: as §1
(In general: In TR-FRET formats the signal depends on donor and acceptor labels being close together.)

The next experiment deals with MOG (35-55)-induced EAE. The experiment can be described thus: MOG (35-55)-induced experimental autoimmune encephalomyelitis (EAE) in mice. Conditions: 20 mg/kg, p.o., once daily, from appearance of symptoms. The format is in vivo, C57/B16J mice.
The next experiment deals with JNK2 (Homo sapiens, UniProt P45984). Put plainly: JNK2 SPA assay. Particulars: 3.33 μM ATP, GST-c-Jun substrate. The format is biochemical. As for the experimental part: (§2) JNK1, JNK2, JNK3—SPA Assay
(§3) JNK1, JNK2, JNK3—SPA Assay • 1. Compound is dissolved in DMSO to a convenient concentration and this is diluted in 10% DMSO to a five times concentrate of the desired starting concentration (frequently 1:100). • 2. 10 μl of 500 mM EDTA is added to alternative wells of the Opti-plate row, which will receive kinase reaction plus DMSO. This creates the negative control. • 3. For the JNK2 and JNK3 assay, compounds are prepared in six 2-fold dilutions with water and each concentration is tested in duplicate. For the JNK1 assay compounds are prepared in four 5-fold dilutions with water which are tested in triplicate. Controls are treated identically. • 4. 20 μl per well of each compound concentration is transferred to an Opti-plate, in duplicate. • 5. 30 μl (JNK2/3 SPA) or 50 μl (JNK1 SPA) of substrate solution (25 mM HEPES pH 7.5, 10 mM magnesium acetate with 3.33 μM ATP (JNK2/3) or 2 μM ATP (JNK1), approximately 7.5 kBq [γ-^33P] ATP, GST-c-Jun, in water) is added to each well. • 6. 50 μl (JNK2/3 SPA) or 30 μl (JNK1 SPA) of kinase solution (JNK in 25 mM HEPES pH 7.5, 10 mM Mg Acetate) is added to each well.
(§4) • 7. The plate is incubated for 30 minutes at room temperature. • 8. […] Plates are sealed and incubated for 30 minutes at room temperature, centrifuged for 10 minutes at 2500 g and counted. • 10. […]

The target of a further experiment is JNK1 (Homo sapiens, UniProt P45983). Put plainly: JNK1 SPA assay. The format is biochemical. Conditions: 2 μM ATP, GST-c-Jun substrate. The procedure:
as §2, §3, §4

The values below come from patent publication US8178552B2, “7-Azaindole derivatives and their use in the inhibition of c-Jun N-terminal kinase” (Eisai R&D Management Co., Ltd., priority 2008, dated 2012).

Chain of JNK3 (P53779 whole entry, species assumed): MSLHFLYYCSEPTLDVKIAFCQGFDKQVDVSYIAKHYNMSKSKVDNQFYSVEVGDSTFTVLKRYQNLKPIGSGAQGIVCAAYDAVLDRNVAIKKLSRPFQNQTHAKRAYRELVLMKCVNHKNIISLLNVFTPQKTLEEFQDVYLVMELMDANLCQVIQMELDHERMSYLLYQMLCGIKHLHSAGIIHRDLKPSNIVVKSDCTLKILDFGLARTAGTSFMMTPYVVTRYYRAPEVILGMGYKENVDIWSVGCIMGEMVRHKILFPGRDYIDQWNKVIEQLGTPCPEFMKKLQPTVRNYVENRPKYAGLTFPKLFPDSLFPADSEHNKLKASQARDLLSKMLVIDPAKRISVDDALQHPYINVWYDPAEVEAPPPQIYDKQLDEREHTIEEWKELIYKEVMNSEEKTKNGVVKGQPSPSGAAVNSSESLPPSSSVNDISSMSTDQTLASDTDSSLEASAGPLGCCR
Chain of JNK2 (P45984 whole entry, species assumed): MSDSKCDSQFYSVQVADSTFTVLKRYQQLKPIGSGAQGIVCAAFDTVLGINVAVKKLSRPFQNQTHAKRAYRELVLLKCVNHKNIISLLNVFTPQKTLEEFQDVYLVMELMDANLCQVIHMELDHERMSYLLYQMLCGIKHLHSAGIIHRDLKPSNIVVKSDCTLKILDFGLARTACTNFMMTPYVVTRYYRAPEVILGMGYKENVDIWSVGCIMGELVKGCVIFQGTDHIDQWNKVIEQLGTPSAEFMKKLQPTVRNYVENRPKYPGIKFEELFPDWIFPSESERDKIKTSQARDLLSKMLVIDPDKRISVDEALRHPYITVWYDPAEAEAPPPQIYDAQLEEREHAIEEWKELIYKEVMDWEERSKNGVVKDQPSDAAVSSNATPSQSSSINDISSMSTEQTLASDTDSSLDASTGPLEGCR
Chain of JNK1 (P45983 whole entry, species assumed): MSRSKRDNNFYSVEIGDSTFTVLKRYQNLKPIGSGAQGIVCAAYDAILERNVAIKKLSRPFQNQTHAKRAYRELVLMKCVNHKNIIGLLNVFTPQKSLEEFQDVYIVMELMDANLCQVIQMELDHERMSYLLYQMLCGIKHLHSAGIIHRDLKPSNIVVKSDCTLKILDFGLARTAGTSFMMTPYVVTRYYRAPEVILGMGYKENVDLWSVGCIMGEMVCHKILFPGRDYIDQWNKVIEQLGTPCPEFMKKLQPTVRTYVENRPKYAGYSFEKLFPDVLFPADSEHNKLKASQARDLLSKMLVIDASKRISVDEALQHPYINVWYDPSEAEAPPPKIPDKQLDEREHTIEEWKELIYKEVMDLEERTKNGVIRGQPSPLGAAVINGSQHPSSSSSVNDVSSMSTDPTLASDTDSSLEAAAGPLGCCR

For the compound `CN(C)c1ccc(-c2cnc3[nH]cc(-c4cn[nH]c4)c3c2)cc1` [A], the “Gini coefficient, reference compounds, aromatic C(5) group” value in the experiment on panel of 100 kinases was 0.3368.
The term IC50 denotes the concentration needed to halve the response being measured. On to `Cn1cc(-c2c[nH]c3ncc([C@H]4CC[C@H](N5CCOCC5)CC4)cc23)cn1` [Compound I-6, 4-((1r,4r)-4-(3-(1-methyl-1H-pyrazol-4-yl)-1H-pyrrolo[2,3-b]pyridin-5-yl)cyclohexyl)morpholine], for which the IC50 at JNK3 came out at 80 nM. In addition, the figures for the inhibition in vivo at 20 mg/kg in the experiment on TNFα and in the experiment with c-Jun phosphorylation were 82% and 41%, respectively. In the experiment on MOG (35-55)-induced EAE (FIG. 10), the “total white matter area in the lumbar spinal cord” value is recorded as “preservation”. Further, the “neuronal numbers in the ventral horn of the lumbar spinal cords” value with MOG (35-55)-induced EAE (FIG. 11) was “preservation”. Besides, the “demyelination in the lumbar spinal cord” value with MOG (35-55)-induced EAE (FIG. 12) was “decrease”.
Consider `CN1CCCN([C@H]2CC[C@H](c3cnc4[nH]cc(-c5cnn(C)c5)c4c3)CC2)CC1` [Compound I-37, 5-((1r,4r)-4-(4-methyl-1,4-diazepan-1-yl)cyclohexyl)-3-(1-methyl-1H-pyrazol-4-yl)-1H-pyrrolo[2,3-b]pyridine], for which the IC50 on JNK3 amounted to 69 nM. Moreover, the inhibition in vivo at 20 mg/kg in the experiment on TNFα was 51%; with c-Jun phosphorylation it was -3%.
Consider `Cn1cc(-c2c[nH]c3ncc([C@H]4CC[C@@H](N5CCCOCC5)CC4)cc23)cn1` [Compound I-39, 4-((1s,4s)-4-(3-(1-methyl-1H-pyrazol-4-yl)-1H-pyrrolo[2,3-b]pyridin-5-yl)cyclohexyl)-1,4-oxazepane], for which the IC50 at JNK3 is 184 nM. The values for the inhibition in vivo at 20 mg/kg with TNFα and in the experiment with c-Jun phosphorylation were 67% and 10%, respectively.
For `Cn1cc(-c2c[nH]c3ncc([C@H]4CC[C@H](N5CCCOCC5)CC4)cc23)cn1` [Compound I-40, 4-((1r,4r)-4-(3-(1-methyl-1H-pyrazol-4-yl)-1H-pyrrolo[2,3-b]pyridin-5-yl)cyclohexyl)-1,4-oxazepane], at JNK3, the IC50 worked out at 129 nM. Besides, the inhibition in vivo at 20 mg/kg amounted to 61% with TNFα and 35% in the experiment on c-Jun phosphorylation.
For `CC(C)N1CCN([C@H]2CC[C@H](c3cnc4[nH]cc(-c5cnn(C)c5)c4c3)CC2)CC1` [Compound I-43, 5-((1r,4r)-4-(4-isopropylpiperazin-1-yl)cyclohexyl)-3-(1-methyl-1H-pyrazol-4-yl)-1H-pyrrolo[2,3-b]pyridine], in that order: 117 nM, 74% and 0%.
As for `CC(C)N1CCN([C@H]2CC[C@@H](c3cnc4[nH]cc(-c5cnn(C)c5)c4c3)CC2)CC1` [Compound I-44, 5-((1s,4s)-4-(4-isopropylpiperazin-1-yl)cyclohexyl)-3-(1-methyl-1H-pyrazol-4-yl)-1H-pyrrolo[2,3-b]pyridine], the IC50 at JNK3 was found to be 129 nM. For the same compound, the inhibition in vivo at 20 mg/kg in the experiment on TNFα amounted to 58%; with c-Jun phosphorylation, 17%.
For `Cn1cc(-c2c[nH]c3ncc([C@H]4CC[C@H](N(C)C)CC4)cc23)cn1` [Compound I-71, (1r,4r)-N,N-dimethyl-4-(3-(1-methyl-1H-pyrazol-4-yl)-1H-pyrrolo[2,3-b]pyridin-5-yl)cyclohexanamine], the IC50 at JNK3 was 189 nM. For the same compound, the values for the inhibition in vivo at 20 mg/kg in the experiment with TNFα and in the experiment with c-Jun phosphorylation were 86% and 7%, respectively.
For `Cn1cc(-c2c[nH]c3ncc([C@H]4CC[C@@H](N(C)C)CC4)cc23)cn1` [Compound I-72, (1s,4s)-N,N-dimethyl-4-(3-(1-methyl-1H-pyrazol-4-yl)-1H-pyrrolo[2,3-b]pyridin-5-yl)cyclohexanamine], in that order: 259 nM, 84% and 15%.
`Cn1cc(-c2c[nH]c3ncc(C4=CC5CCC4C5)cc23)cn1` (stereo not drawn) [Compound I-136, 5-(bicyclo[2.2.1]hept-2-en-2-yl)-3-(1-methyl-1H-pyrazol-4-yl)-1H-pyrrolo[2,3-b]pyridine]: the IC50 at JNK3 stood at 76 nM. Also, the inhibition in vivo at 20 mg/kg with TNFα stood at 87%; in the experiment on c-Jun phosphorylation it was 42%.
Regarding `Cn1cc(-c2c[nH]c3ncc(C4CC5CCC4C5)cc23)cn1` (stereo not drawn) [Compound I-137, 5-(bicyclo[2.2.1]heptan-2-yl)-3-(1-methyl-1H-pyrazol-4-yl)-1H-pyrrolo[2,3-b]pyridine], the IC50 at JNK3 worked out at 45 nM. Further, the inhibition in vivo at 20 mg/kg in the experiment on TNFα was 45%; with c-Jun phosphorylation it was 15%.
Regarding `Cn1cc(-c2c[nH]c3ncc(C4=CCCC5C4C5(C)C)cc23)cn1` (stereo not drawn) [Compound I-141, 5-(7,7-dimethylbicyclo[4.1.0]hept-2-en-2-yl)-3-(1-methyl-1H-pyrazol-4-yl)-1H-pyrrolo[2,3-b]pyridine], the half-inhibitory concentration (IC50) at JNK3 was found to be 288 nM. The inhibition in vivo at 20 mg/kg in the experiment on TNFα is 43%; with c-Jun phosphorylation, 4%.
For `Cn1cc(-c2c[nH]c3ncc(C4C5CC6CC(C5)CC4C6)cc23)cn1` (stereo not drawn) [Compound I-154, 3-(1-Methyl-1H-pyrazol-4-yl)-5-tricyclo[3.3.1.1˜3,7˜]dec-2-yl-1H-pyrrolo[2,3-b]pyridine], in that order: 62 nM, 60% and 33%.
For the compound `CN1CCC(c2csc(-c3cnc4[nH]cc(-c5cnn(C)c5)c4c3)n2)CC1` [E], the “Gini coefficient, reference compounds, aromatic C(5) group” value with panel of 100 kinases is 0.3757.
The same measure, in the same setting: the figure for `CN(C)C(=O)c1nc(-c2c[nH]c3ncc(-c4ccccc4)cc23)cs1` [G] is 0.3501; for `CN1CCN(C(=O)c2nc(-c3c[nH]c4ncc(-c5ccc(N6CCN(C)CC6)cc5)cc34)cs2)CC1` [J] it is 0.3286.
Take `CC1CCC(c2cnc3[nH]cc(-c4cnn(C)c4)c3c2)CC1` (stereo not drawn) [compound 3]: the IC50 against JNK2 stood at 501 nM; at JNK1, 178 nM.
For `CN1CCN([C@H]2CC[C@H](c3cnc4[nH]cc(-c5cnn(C)c5)c4c3)CC2)CC1` [compound 25], the values for the IC50 on JNK2 and at JNK1 were 245 nM and 191 nM, respectively. Also, the “Gini coefficient, compounds (I), non-aromatic C(5) group” value in the experiment on panel of 100 kinases was 0.6769.
